From US20250326748A1, “COMPOUNDS AND METHODS FOR MODULATING SPLICING” (REMIX THERAPEUTICS INC., priority 2022, published 2025)
Where two headings read alike, the source gives them in different places.

Legend:
Assay type in all cases: cell-based, human
[1] = tested on: HTT mRNA; test: Splicing RT-qPCR assay, HTT canonical (CJ) and alternative (AJ) junction mRNA; details: Homo sapiens; for IC50: canonical junction mRNA; for AC50: alternative junction mRNA, read-out: HTT AJ (AC50, increase in AJ mRNA)
Outline: (§1)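 Splicing switches are scored by TaqMan qPCR on cell lysate, comparing abundance of the normal exon junction with the new junction formed when the alternative exon is included. A673 results are referenced to PPIA and K562 results to GAPDH or GUSB. Compound exposure lasts 24 h.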

[2] = tested on: MYB mRNA; test: Splicing RT-qPCR assay, MYB canonical (CJ) and alternative (AJ) junction mRNA; details: Homo sapiens; for IC50: canonical junction mRNA; for AC50: alternative junction mRNA, read-out: MYB AJ (AC50, increase in AJ mRNA)
Outline: as §1

[3] = tested on: HiBiT-tagged HTT protein; test: HiBiT protein abundance assay, HTT (K562 HiBiT knock-in); details: HiBiT knock-in cells, 24 hours
Outline: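 Endogenously HiBiT-tagged K562 knock-in lines treated 24 h at 37 °C with 10-point 3-fold dilutions (top 10 μM final, DMSO ≤0.25%) in IMDM+1% FBS. Lytic Nano-Glo luminescence normalized to DMSO and unmodified K562 controls; four-parameter fit gives 50%-abundance concentration (IC50).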

[4] = 24 h, RT-qPCR, A673 or K562 cells, 24 hours treatment, read-out: HTT CJ (IC50, decrease in CJ mRNA)
[5] = qPCR panel, read-out: HTT CJ (decrease in CJ mRNA levels, IC50)
[6] = RT-qPCR, A673 or K562 cells, 24 hours treatment
[7] = qPCR panel, read-out: MYB CJ (decrease in CJ mRNA levels, IC50)
[8] = RT-qPCR, A673 or K562 cells, 24 hours treatment, read-out: MYB CJ (IC50, decrease in CJ mRNA)

Structure (SMILES)	IC50 [1, 4]	IC50 [1, 5]	IC50 [2, 7]	IC50 [2, 8]	IC50 [3]	AC50 [1, 6]	AC50 [2, 6]
CN[C@H]1CCN(c2cnc3nc(-c4cc5cn(C)nc5c(C)c4O)nc(OC)c3c2)C1 [Compound 212, 5-{4-methoxy-6-[(3S)-3-(methylamino)pyrrolidin-1-yl]pyrido[2,3-d]pyrimidin-2-yl}-2,7-dimethylindazol-6-ol]	< 100 nM	< 100 nM	< 100 nM	< 100 nM	< 100 nM	100 to 1000 nM	< 100 nM
Cc1c(O)c(-c2ncc3cc(N4C[C@@H](C)N[C@@H](C)C4)cnc3n2)cc2cn(C)nc12 [Compound 214]	100 to 1000 nM	100 to 1000 nM	100 to 1000 nM	100 to 1000 nM	100 to 1000 nM	1000 to 10000 nM	100 to 1000 nM
Cc1c(O)c(-c2ccc3nc(N4C[C@@H](C)N[C@@H](C)C4)cnc3n2)cc2cn(C)nc12 [Compound 195, 5-{2-[(3R,5S)-3,5-dimethylpiperazin-1-yl]pyrido[2,3-b]pyrazin-6-yl}-2,7-dimethylindazol-6-ol]	1000 to 10000 nM	1000 to 10000 nM	100 to 1000 nM	100 to 1000 nM	1000 to 10000 nM	> 10000 nM	100 to 1000 nM
Cc1cn2nc(-c3ccc4cc(N(C)C5CCNCC5)cnc4n3)cc(C)c2n1 [Compound 205, 7-{2,8-dimethylimidazo[1,2-b]pyridazin-6-yl}-N-methyl-N-(piperidin-4-yl)-1,8-naphthyridin-3-amine]	> 10000 nM	> 10000 nM	1000 to 10000 nM	1000 to 10000 nM	> 10000 nM	> 10000 nM	1000 to 10000 nM
Cc1c(O)c(-c2ncc3cc(N4CC[C@@H](N)C4)cnc3n2)cc2cn(C)nc12 [Compound 159, (R)-5-(6-(3-aminopyrrolidin-1-yl)pyrido[2,3-d]pyrimidin-2-yl)-2,7-dimethyl-2H-indazol-6-ol 2,2,2-trifluoroacetate]	< 100 nM	< 100 nM	< 100 nM	< 100 nM	< 100 nM	100 to 1000 nM	< 100 nM
Cc1c(O)c(-c2cc(-c3ccccn3)c3cc(N4C[C@@H](C)N[C@@H](C)C4)cnc3n2)cc2cn(C)nc12 [Compound 217, 5-{6-[(3R,5S)-3,5-dimethylpiperazin-1-yl]-4-(pyridin-2-yl)-1,8-naphthyridin-2-yl}-2,7-dimethylindazol-6-ol]	> 10000 nM	> 10000 nM	> 10000 nM	> 10000 nM	1000 to 10000 nM	> 10000 nM	> 10000 nM
Cn1cc2cc(-c3cc(Cl)c4cc(N5CCN6CCCC6C5)cnc4n3)cc(F)c2n1 (stereo not drawn) [Compound 216, 4-chloro-2-(7-fluoro-2-methylindazol-5-yl)-6-{hexahydro-1H-pyrrolo[1,2-a]pyrazin-2-yl}-1,8-naphthyridine trifluoroacetic acid]	1000 to 10000 nM	1000 to 10000 nM	100 to 1000 nM	100 to 1000 nM	1000 to 10000 nM	1000 to 10000 nM	100 to 1000 nM
Cn1cc2cc(-c3cc(Cl)c4cc(N5CCNCC5)cnc4n3)c(O)c(F)c2n1 [Compound 155, 5-[4-chloro-6-(piperazin-1-yl)-1,8-naphthyridin-2-yl]-7-fluoro-2-methylindazol-6-ol]	< 100 nM	< 100 nM	< 100 nM	< 100 nM	< 100 nM	< 100 nM	< 100 nM

Second part, led by results:

IC50 [1, 4]	IC50 [1, 5]	IC50 [2, 7]	IC50 [2, 8]	IC50 [3]	Structure (SMILES)	AC50 [1, 6]	AC50 [2, 6]
< 100 nM	< 100 nM	< 100 nM	< 100 nM	< 100 nM	Cn1cc2cc(-c3cnc4cc(N5CC[C@@H](NC6CC6)C5)ccc4n3)c(O)c(F)c2n1 [Compound 177, 5-[6-[(3R)-3-(cyclopropylamino)318quinoxaline-1-yl]318quinoxaline-2-yl]-7-fluoro-2-methyl-indazol-6-ol]	< 100 nM	< 100 nM
100 to 1000 nM	100 to 1000 nM	< 100 nM	< 100 nM	100 to 1000 nM	C[C@H]1CN(c2cnc3nc(-c4cc(F)c5nn(C)cc5c4)cc(Cl)c3c2)C[C@H](C)N1 [Compound 250]	100 to 1000 nM	< 100 nM
100 to 1000 nM	100 to 1000 nM	< 100 nM	< 100 nM	100 to 1000 nM	CNC1CCN(c2cnc3nc(-c4cc(F)c5nc(C)cn5c4)ccc3c2)C1 (stereo not drawn) [Compound 100, 1-(7-{8-fluoro-2-methylimidazo[1,2-a]pyridin-6-yl}-1,8-naphthyridin-3-yl)-N-methylpyrrolidin-3-amine]	100 to 1000 nM	< 100 nM
1000 to 10000 nM	1000 to 10000 nM	100 to 1000 nM	100 to 1000 nM	1000 to 10000 nM	Cn1cc2cc(-c3cnc4nc(N5CCNCC5)cc(Cl)c4c3)cc(F)c2n1 [Compound 101, 4-chloro-6-(7-fluoro-2-methyl-2H-indazol-5-yl)-2-(piperazin-1-yl)-1,8-naphthyridine]	1000 to 10000 nM	< 100 nM
< 100 nM	< 100 nM	< 100 nM	< 100 nM	< 100 nM	Cc1nc2c(C)c(O)c(-c3cnc4cc(N5CCC(NC6CC6)C5)ccc4n3)cc2o1 (stereo not drawn) [Compound 182, 6-[6-[3-(cyclopropylamino)pyrrolidin-1-yl]quinoxalin-2-yl]-2,4-dimethyl-1,3-benzoxazol-5-ol]	< 100 nM	< 100 nM
100 to 1000 nM	100 to 1000 nM	< 100 nM	< 100 nM	100 to 1000 nM	CNC1CCN(c2cnc3nc(-c4cc5cn(C)nc5c(C)c4O)cc(Cl)c3n2)C1 (stereo not drawn) [Compound 193, 5-{8-chloro-2-[3-(methylamino)355pyrrolidine-1-yl]pyrido[2,3-b]pyrazin-6-yl}-2,7-dimethylindazol-6-ol]	100 to 1000 nM	< 100 nM
1000 to 10000 nM	1000 to 10000 nM	100 to 1000 nM	100 to 1000 nM	1000 to 10000 nM	C[C@@H]1CN(c2cnc3nc(-c4cc(F)c5nn(C)cc5c4)cc(Cl)c3c2)C[C@@H](C)N1 [Compound 251]	1000 to 10000 nM	100 to 1000 nM
< 100 nM	< 100 nM	< 100 nM	< 100 nM	< 100 nM	Cn1cc2cc(-c3cnc4cc(N5CCC(NC6CC6)C5)ccc4n3)c(O)c(F)c2n1 (stereo not drawn) [Compound 175, 5-[6-[3-(cyclopropylamino)pyrrolidin-1-yl]quinoxalin-2-yl]-7-fluoro-2-methyl-indazol-6-ol]	< 100 nM	< 100 nM
> 10000 nM	< 100 nM	< 100 nM	> 10000 nM	> 10000 nM	Cc1cn2cc(-c3cnc4nc(C5CCNCC5)ccc4c3)cc(C)c2n1 [Compound 201]	> 10000 nM	> 10000 nM
100 to 1000 nM	100 to 1000 nM	100 to 1000 nM	100 to 1000 nM	100 to 1000 nM	CC1CN(c2cnc3nc(-c4cc(F)c5nn(C)cc5c4)cc(Cl)c3c2)CCN1 (stereo not drawn) [Compound 203, 4-chloro-2-(7-fluoro-2-methyl-2H-indazol-5-yl)-6-(3-methylpiperazin-1-yl)-1,8-naphthyridine 2,2,2-trifluoroacetate]	1000 to 10000 nM	< 100 nM
